Patent publication US11629135B2 (JUBILANT PRODEL LLC, priority 2017, dated 2023)
Where two headings read alike, the source gives them in different places.

Legend:
CYP 2C9 = target: T1, CYP 2C9 (Homo sapiens, UniProt P11712); experiment: CYP inhibition in human liver microsomes (CYP2C9); format: in vitro ADME; details: hydroxylation of diclofenac, read-out: predicted IC50, CYP 2C9
T1 construct: assessed in human liver microsomes (procured from GIBCO Invitrogen); tissue GIBCO Invitrogen; host or cells: human liver microsomes
Experimental: CYP inhibition potential of compound was assessed in human liver microsomes (procured from GIBCO Invitrogen) against CYP3A4, 2D6, 2C9, 2C19 and 1A2 in the following sequential steps. Standard reaction mixture (final volume 300 μL) contained […] potassium phosphate buffer (pH 7.4), protein (0.1, 0.25, 0.5, 0.5 and 0.5 mg/mL concentration for CYP3A4, 2D6, 2C9 2C19 and 1A2 respectively) and compound (at eight different concentration levels ranging from […], added as 0.9 μL DMSO solution with a final DMSO concentration of […]). The mixtures were pre-incubated at 37±1° C. for 5 min. The reaction (in duplicate) was initiated by addition of 30 μL of NADPH (10 mM). Reaction was terminated at 10 min by adding 300 μL of acetonitrile. The activity of liver microsomes was confirmed with positive controls i.e., monitoring the hydroxylation of midazolam for CYP 3A4, hydroxylation of bufuralol for CYP 2D6, hydroxylation of diclofenac for CYP 2C9, hydroxylation of omeprazole for CYP2C19 and O-Deethylation for CYP 1A2. The reaction mixtures (obtained from the above studies) were extracted, processed and analyzed by LC-MS [Shimadzu SIL LC series (Kyoto, Japan) was coupled to an API-4000 Mass Spectrometer (MDS Sciex, Toronto, Canada)].

[1] = Intravenous and oral pharmacokinetics in mice; format: in vivo, Balb/c mice; details: for Vd: iv, 2 mg/kg; for half-life: read-out: t1/2, β (converted)
Description: Pharmacokinetics Evaluation of Compound-45: Animal Experiments Details
Institutional Animal Ethical Committee (IAEC) of Jubilant Biosys (IAEC/JDC/2018/158) nominated by CPCSEA (Committee for the Purpose of Control and Supervision of Experiments on Animals) approved the mice pharmacokinetic experiments. Male Balb/c mice (˜6-8 weeks old with body weight range of 22-25 g) were procured from Vivo Biotech, Hyderabad, India. Animals were quarantined in Jubilant Biosys Animal House for a period of 7 days with a 12:12 h light:dark cycles, and prior study the animals were stratified as per body weight. Animals had free access to feed (Altromin Spezialfutter GmbH & Co. KG., Im Seelenkamp 20, D-32791, Lage, Germany) and water ad-libitum.
Intravenous and oral pharmacokinetics study was done at a dose of 2 and 10 mg/kg and at a dose volume of 10 mL/kg. Serial blood samples (200 μL) were collected from retro-orbital plexus at 0.083 (Only for IV), 0.15, 0.5, 1, 2, 4, 8, 10 (only for PO) and 24 h. Blood samples collected in tubes containing K2.EDTA as anticoagulant and centrifuged for 5 min at 14000 rpm in a refrigerated centrifuge (Biofuge, Heraeus, Germany) maintained at 4° C. for plasma separation.
Group I (PO) (22-25 g) received compound-45 at 10 mg/Kg (suspension formulation prepared using 0.5% methylcellulose and Tween-80; dose volume: 10 mL/Kg), whereas group II received IV (24-25 g) received compound-45 intravenously [5% DMSO, 5% Solutol:absolute alcohol (1:1, v/v) and 90% of normal saline; strength: 0.2 mg/mL; dose volume: 10 mL/Kg] at 2.0 mg/Kg dose. Post-dosing serial blood samples (200 μL), sparse sampling was done and at each time point three mice were used for blood sampling) were collected at regular intervals using heparinized capillaries through retro-orbital plexus into polypropylene tubes containing K2.EDTA solution as an anti-coagulant. Animals were allowed to eat feed 2 h post dose of compound-45. Blood concentration-time data of compound-45 was analyzed by non-compartmental method using Phoenix WinNonlin Version 7.0.

[2] = Plasma protein binding by equilibrium dialysis; format: in vitro ADME, mouse; details: pH 7.4; mouse plasma, 3 μM, equilibrium dialysis 4.5 h
Experimental: (§1) To evaluate the ability of compound to bind the plasma proteins, the most common approach of plasma protein binding using equilibrium dialysis was used. Compound was tested at a final concentration of 3 μM in mouse, rat, human or dog plasma. An aliquot of 150 μL plasma containing compound was added in first half (plasma side) of the well of 96-well micro-equilibrium dialysis device. An aliquot of 150 μL of 100 mM sodium phosphate buffer pH 7.4 was added in the second half (buffer side) of the well of 96-well HT equilibrium dialysis device. The plate containing plasma and buffer was equilibrated at 37±1° C. for 4.5 h, with constant shaking at 120 rpm on an orbital shaker. Samples were collected from respective halves after the completion of incubation time. The proteins were precipitated using organic solvents. The samples were subjected to centrifugation and the supernatants were analyzed analysis on LC-MS/MS.

plasma proteins = experiment: Plasma protein binding by equilibrium dialysis; format: in vitro ADME, mouse; details: plasma, equilibrium dialysis
Experimental: as §1

[3] = tested on: RENCA renal cancer cell line; experiment: In vivo efficacy in RENCA renal model; design: species or system Balb/c mice; details: oral dosing
Experimental: In Vivo Efficacy of Compound-45 in RENCA Renal Model (FIG. 1):
RENCA renal cancer cell line was procured from ATCC, USA and grown in the recommended media and culture conditions. Cells in the exponential phase were mixed with equal volume of matrigel in a 1:1 ratio, followed by implantation of 1×10^6 cells/100 μl subcutaneously on the right flank of immunocompetant Balb/c mice (1 site/mouse). Tumor cells were engrafted at the site of injection within 1-2 weeks of implantation and treatment was initiated by randomizing mice into study groups of N=10, when the average tumor volume reached 100 mm^3. Tumor bearing mice were treated with Vehicle (oral), Vehicle (IP), Compound B (orally at 30 mg/kg dose, twice daily) or Anti-PD-L1 mAb (Clone 10F.9G2, BioXcell) intraperitoneally at 0.1 mg/mouse, Q4D. Tumor volume and mouse body weight was measured three times per week during treatment, until the tumor volume reached a maximum of 2000 mm^3. Tumor volume (mm^3) was calculated using the formula—(tumor length)×(tumor width)^2/2. For pharmacokinetic parameters of Compound B, plasma and tumors were isolated at the end of the study and analyzed. Tumor growth inhibition was calculated after normalizing the tumor volume on a given day to that on day 1 based on the formula below: % TGI=[1−(Treatment TVFinal−Treatment TVinitial)/(Vehicle TVFinal−Vehicle TVinitial)]*100

[4] = male, mouse, plasma, Balb C mice, IV dose of 2 mg/Kg
[5] = male, mouse, plasma, Balb C mice, oral dose of 10 mg/Kg

T1 sequence (P11712 whole entry): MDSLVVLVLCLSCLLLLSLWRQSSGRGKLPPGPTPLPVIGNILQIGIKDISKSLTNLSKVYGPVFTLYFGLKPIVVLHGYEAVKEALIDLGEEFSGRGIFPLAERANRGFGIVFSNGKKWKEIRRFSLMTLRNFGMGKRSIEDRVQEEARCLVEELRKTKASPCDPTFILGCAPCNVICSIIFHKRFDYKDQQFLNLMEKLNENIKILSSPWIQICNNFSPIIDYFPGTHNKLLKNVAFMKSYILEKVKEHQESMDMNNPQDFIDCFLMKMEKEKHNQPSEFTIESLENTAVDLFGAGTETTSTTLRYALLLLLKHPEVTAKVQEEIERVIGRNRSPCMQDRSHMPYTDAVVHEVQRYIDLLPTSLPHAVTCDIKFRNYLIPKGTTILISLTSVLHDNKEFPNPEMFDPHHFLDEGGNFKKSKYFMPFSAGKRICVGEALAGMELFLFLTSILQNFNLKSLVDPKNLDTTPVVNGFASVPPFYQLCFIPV

IC50 (CYP 2C9): > 10 µM
Tlast ([1]; Balb C mice, IV dose of 2 mg/Kg): 8.00 h
Tlast ([1]; Balb C mice, oral dose of 10 mg/Kg): 24.0 h
Oral bioavailability (F %) ([1]; Balb C mice, oral dose of 10 mg/Kg, 10 mg/kg): 90.6%
Vd ([1]; male, Balb/c, mouse, plasma, Balb C mice, IV dose of 2 mg/Kg, read-out: Vd): 0.74 L/kg
Vd ([1]; male, Balb/c, mouse, plasma, Balb C mice, IV dose of 2 mg/Kg, read-out: Vdss): 1.2 L/kg
bioavailability ([1]; male, Balb/c, mouse, plasma, po, 10 mg/kg, Balb C mice, oral dose of 10 mg/Kg, read-out: Oral bioavailability (F %)): 91%
AUC(0-inf) [1, 4]: 4.92 µg·h/mL
AUC(0-t) [1, 4]: 4.48 µg·h/mL
Cmax [1, 4]: 2.11 µg/mL
clearance [1, 4]: 0.406 L/h/kg
C0 ([1]; male, mouse, plasma, Balb C mice, IV dose of 2 mg/Kg, extrapolated, calculated manually using initial 3 time points): 2.13 µg/mL
half-life [1, 4]: 1.27 h
AUC(0-inf) [1, 5]: 21.1 µg·h/mL
AUC(0-t) [1, 5]: 20.3 µg·h/mL
Cmax [1, 5]: 4.84 µg/mL
Tmax [1, 5]: 0.5 h
half-life [1, 5]: 6.32 h
clearance as share of hepatic blood flow (HBF) ([1]; mice, intravenous): 8 % hepatic blood flow
volume of distribution relative to total body water (TBW) ([1]; mice, intravenous): 40 times
fraction unbound at 4.5 h, 3 μM [2]: 0.039
stability and recovery in plasma (plasma proteins): good
SMILES: COc1nc(OCc2cccc(-c3ccccc3)c2C)nc(OC)c1CN1CCCC[C@H]1C(=O)O [Compound 45, (S)-1-((4,6-dimethoxy-2-((2-methyl-[1,1′-biphenyl]-3-yl)methoxy)pyrimidin-5-yl)methyl)piperidine-2-carboxylic acid]
body weight during the dosing regimen ([3]; RENCA tumor bearing Balb/c mice): no significant body weight reduction
efficacy in RENCA renal model (tumor growth) ([3]; syngeneic Balb/c mice, 30 mg/kg twice daily, comparator Anti-PD-L1 mAb 0.1 mg/mouse IP Q4D): better or similar efficacy compared to PD-L1 monoclonal antibody
